Read-outs that look alike come from different tables or passages of the source.
What was measured:
Experiment in all cases: MIC, broth microdilution (CLSI), substance alone or ATB combined with compound at 4 or 8 μg/mL
[1] = tested on: KPN UFR42; assay type: cell-based, K. pneumoniae; details: KPN UFR42
In short: (§1)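 Growth inhibition endpoint, read visually after 16-20 h at 35° C in ambient air. Cation-adjusted Mueller-Hinton broth, inoculum 5·10^5 CFU/mL, CLSI M7-A7 protocol.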

[2] = tested on: KPN 6299; assay type: cell-based, K. pneumoniae; details: for MIC: Klebsiella pneumoniae
In short: as §1

[3] = tested on: KPN BAA-1898; assay type: cell-based, K. pneumoniae; details: KPN BAA-1898; for MIC: Klebsiella pneumoniae, BAA1898
In short: as §1

[4] = tested on: ECO 190317; assay type: cell-based, E. coli; details: ECO 190317; for MIC: Escherichia coli
In short: as §1

[5] = tested on: ECO UFR39; assay type: cell-based, E. coli; details: ECO UFR39
In short: as §1

[6] = tested on: SAU 29213; assay type: cell-based, S. aureus; details: SAU 29213
In short: as §1

[7] = tested on: PAE UFR48; assay type: cell-based, P. aeruginosa; details: PAE UFR48
In short: as §1

[8] = tested on: PAE 105250; assay type: cell-based, P. aeruginosa; details: PAE 105250
In short: as §1

[9] = tested on: PAE UFR90; assay type: cell-based, P. aeruginosa; details: PAE UFR90
In short: as §1

[10] = tested on: SPN 49619; assay type: cell-based, S. pneumoniae; details: SPN 49619
In short: as §1

[11] = tested on: ECL P99; assay type: cell-based, E. cloacae; details: ECL P99; for MIC: Enterobacter cloacae
In short: as §1

[12] = antibiotic alone, read-out: MIC ATB alone

COCC1=C(C(=O)O)N2C(=O)[C@@H](NC(=O)/C(=N\OC)c3csc(N)n3)[C@H]2SC1 [POD, Cefpodoxime, reference compound]
4 µg/mL: MIC ATB combined with Example 1 @8 μg/ml ([6]; with Example 1 at 8 μg/ml) | MIC ([6]; Staphylococcus aureus, antibiotic alone, read-out: MIC ATB alone) | MIC ATB combined with Example 13 @8 μg/ml ([11]; with Example 13 at 8 μg/ml)
> 512 µg/mL: MIC [3, 12] | MIC ([3]; substance alone, read-out: MIC) | MIC [4, 12] | MIC ([4]; substance alone, read-out: MIC) | MIC ([8]; Pseudomonas aeruginosa, antibiotic alone, read-out: MIC ATB alone) | MIC [11, 12] | MIC ([11]; substance alone, read-out: MIC)
16 µg/mL: MIC ATB combined with Example 7 @8 μgml ([11]; with Example 7 at 8 μg/ml)
>32 µg/mL: MIC ATB combined with Example 1 @8 μg/ml ([1]; with Example 1 at 8 μg/ml) | MIC ATB combined with Example 7 @8 μgml ([1]; with Example 7 at 8 μg/ml) | MIC ATB combined with Example 9 @4 μg/ml ([1]; with Example 9 at 4 μg/ml) | MIC ATB combined with Example 13 @8 μg/ml ([1]; with Example 13 at 8 μg/ml) | MIC ATB combined with Example 7 @8 μgml ([7]; with Example 7 at 8 μg/ml) | MIC ATB combined with Example 9 @4 μg/ml ([7]; with Example 9 at 4 μg/ml) | MIC ATB combined with Example 11 @8 μg/ml ([7]; with Example 11 at 8 μg/ml) | MIC ATB combined with Example 12 @8 μg/ml ([7]; with Example 12 at 8 μg/ml) | MIC ATB combined with Example 13 @8 μg/ml ([7]; with Example 13 at 8 μg/ml) | MIC ATB combined with Example 14 @8 μg/ml ([7]; with Example 14 at 8 μg/ml) | MIC ATB combined with Example 15 @4 μgml ([7]; with Example 15 at 4 μg/ml) | MIC ATB combined with Example 16 @4 μg/ml ([7]; with Example 16 at 4 μg/ml) | MIC ATB combined with Example 7 @8 μgml ([8]; with Example 7 at 8 μg/ml) | MIC ATB combined with Example 9 @4 μg/ml ([8]; with Example 9 at 4 μg/ml) | MIC ATB combined with Example 11 @8 μg/ml ([8]; with Example 11 at 8 μg/ml) | MIC ATB combined with Example 12 @8 μg/ml ([8]; with Example 12 at 8 μg/ml) | MIC ATB combined with Example 13 @8 μg/ml ([8]; with Example 13 at 8 μg/ml) | MIC ATB combined with Example 14 @8 μg/ml ([8]; with Example 14 at 8 μg/ml) | MIC ATB combined with Example 15 @4 μgml ([8]; with Example 15 at 4 μg/ml) | MIC ATB combined with Example 16 @4 μg/ml ([8]; with Example 16 at 4 μg/ml) | MIC ATB combined with Example 7 @8 μgml ([9]; with Example 7 at 8 μg/ml) | MIC ATB combined with Example 9 @4 μg/ml ([9]; with Example 9 at 4 μg/ml) | MIC ATB combined with Example 11 @8 μg/ml ([9]; with Example 11 at 8 μg/ml) | MIC ATB combined with Example 12 @8 μg/ml ([9]; with Example 12 at 8 μg/ml) | MIC ATB combined with Example 13 @8 μg/ml ([9]; with Example 13 at 8 μg/ml) | MIC ATB combined with Example 14 @8 μg/ml ([9]; with Example 14 at 8 μg/ml) | MIC ATB combined with Example 15 @4 μgml ([9]; with Example 15 at 4 μg/ml) | MIC ATB combined with Example 16 @4 μg/ml ([9]; with Example 16 at 4 μg/ml)
<=0.031 μg/mL: MIC ATB combined with Example 9 @4 μg/ml ([6]; with Example 9 at 4 μg/ml) | MIC ATB combined with Example 11 @8 μg/ml ([10]; with Example 11 at 8 μg/ml) | MIC ATB combined with Example 15 @4 μgml ([10]; with Example 15 at 4 μg/ml) | MIC ATB combined with Example 1 @8 μg/ml ([11]; with Example 1 at 8 μg/ml)
> 256 µg/mL: MIC ([1]; Klebsiella pneumoniae, antibiotic alone, read-out: MIC ATB alone) | MIC ([5]; Escherichia coli, antibiotic alone, read-out: MIC ATB alone)
64 µg/mL: MIC [2, 12] | MIC ([2]; substance alone, read-out: MIC)
0.25 µg/mL: MIC ATB combined with Example 1 @8 μg/ml ([2]; with Example 1 at 8 μg/ml) | MIC ATB combined with Example 7 @8 μgml ([2]; with Example 7 at 8 μg/ml)
0.063 µg/mL: MIC ATB combined with Example 1 @8 μg/ml ([10]; with Example 1 at 8 μg/ml) | MIC ATB combined with Example 7 @8 μgml ([10]; with Example 7 at 8 μg/ml) | MIC ATB combined with Example 13 @8 μg/ml ([10]; with Example 13 at 8 μg/ml) | MIC ([10]; Streptococcus pneumoniae, antibiotic alone, read-out: MIC ATB alone)
<0.031 µg/mL: MIC ATB combined with Example 11 @8 μg/ml ([1]; with Example 11 at 8 μg/ml) | MIC ATB combined with Example 12 @8 μg/ml ([1]; with Example 12 at 8 μg/ml) | MIC ATB combined with Example 14 @8 μg/ml ([1]; with Example 14 at 8 μg/ml) | MIC ATB combined with Example 15 @4 μgml ([1]; with Example 15 at 4 μg/ml) | MIC ATB combined with Example 16 @4 μg/ml ([1]; with Example 16 at 4 μg/ml) | MIC ATB combined with Example 9 @4 μg/ml ([2]; with Example 9 at 4 μg/ml) | MIC ATB combined with Example 11 @8 μg/ml ([2]; with Example 11 at 8 μg/ml) | MIC ATB combined with Example 12 @8 μg/ml ([2]; with Example 12 at 8 μg/ml) | MIC ATB combined with Example 14 @8 μg/ml ([2]; with Example 14 at 8 μg/ml) | MIC ATB combined with Example 15 @4 μgml ([2]; with Example 15 at 4 μg/ml) | MIC ATB combined with Example 16 @4 μg/ml ([2]; with Example 16 at 4 μg/ml) | MIC ATB combined with Example 9 @4 μg/ml ([3]; with Example 9 at 4 μg/ml) | MIC ATB combined with Example 11 @8 μg/ml ([3]; with Example 11 at 8 μg/ml) | MIC ATB combined with Example 12 @8 μg/ml ([3]; with Example 12 at 8 μg/ml) | MIC ATB combined with Example 14 @8 μg/ml ([3]; with Example 14 at 8 μg/ml) | MIC ATB combined with Example 15 @4 μgml ([3]; with Example 15 at 4 μg/ml) | MIC ATB combined with Example 16 @4 μg/ml ([3]; with Example 16 at 4 μg/ml) | MIC ATB combined with Example 1 @8 μg/ml ([4]; with Example 1 at 8 μg/ml) | MIC ATB combined with Example 7 @8 μgml ([4]; with Example 7 at 8 μg/ml) | MIC ATB combined with Example 9 @4 μg/ml ([4]; with Example 9 at 4 μg/ml) | MIC ATB combined with Example 11 @8 μg/ml ([4]; with Example 11 at 8 μg/ml) | MIC ATB combined with Example 12 @8 μg/ml ([4]; with Example 12 at 8 μg/ml) | MIC ATB combined with Example 13 @8 μg/ml ([4]; with Example 13 at 8 μg/ml) | MIC ATB combined with Example 14 @8 μg/ml ([4]; with Example 14 at 8 μg/ml) | MIC ATB combined with Example 15 @4 μgml ([4]; with Example 15 at 4 μg/ml) | MIC ATB combined with Example 16 @4 μg/ml ([4]; with Example 16 at 4 μg/ml) | MIC ATB combined with Example 1 @8 μg/ml ([5]; with Example 1 at 8 μg/ml) | MIC ATB combined with Example 7 @8 μgml ([5]; with Example 7 at 8 μg/ml) | MIC ATB combined with Example 9 @4 μg/ml ([5]; with Example 9 at 4 μg/ml) | MIC ATB combined with Example 11 @8 μg/ml ([5]; with Example 11 at 8 μg/ml) | MIC ATB combined with Example 12 @8 μg/ml ([5]; with Example 12 at 8 μg/ml) | MIC ATB combined with Example 13 @8 μg/ml ([5]; with Example 13 at 8 μg/ml) | MIC ATB combined with Example 14 @8 μg/ml ([5]; with Example 14 at 8 μg/ml) | MIC ATB combined with Example 15 @4 μgml ([5]; with Example 15 at 4 μg/ml) | MIC ATB combined with Example 16 @4 μg/ml ([5]; with Example 16 at 4 μg/ml) | MIC ATB combined with Example 11 @8 μg/ml ([6]; with Example 11 at 8 μg/ml) | MIC ATB combined with Example 12 @8 μg/ml ([6]; with Example 12 at 8 μg/ml) | MIC ATB combined with Example 14 @8 μg/ml ([6]; with Example 14 at 8 μg/ml) | MIC ATB combined with Example 15 @4 μgml ([6]; with Example 15 at 4 μg/ml) | MIC ATB combined with Example 16 @4 μg/ml ([6]; with Example 16 at 4 μg/ml) | MIC ATB combined with Example 1 @8 μg/ml ([7]; with Example 1 at 8 μg/ml) | MIC ATB combined with Example 1 @8 μg/ml ([9]; with Example 1 at 8 μg/ml) | MIC ATB combined with Example 9 @4 μg/ml ([10]; with Example 9 at 4 μg/ml) | MIC ATB combined with Example 12 @8 μg/ml ([10]; with Example 12 at 8 μg/ml) | MIC ATB combined with Example 14 @8 μg/ml ([10]; with Example 14 at 8 μg/ml) | MIC ATB combined with Example 16 @4 μg/ml ([10]; with Example 16 at 4 μg/ml) | MIC ATB combined with Example 9 @4 μg/ml ([11]; with Example 9 at 4 μg/ml) | MIC ATB combined with Example 11 @8 μg/ml ([11]; with Example 11 at 8 μg/ml) | MIC ATB combined with Example 12 @8 μg/ml ([11]; with Example 12 at 8 μg/ml) | MIC ATB combined with Example 14 @8 μg/ml ([11]; with Example 14 at 8 μg/ml) | MIC ATB combined with Example 15 @4 μgml ([11]; with Example 15 at 4 μg/ml) | MIC ATB combined with Example 16 @4 μg/ml ([11]; with Example 16 at 4 μg/ml)
0.125 µg/mL: MIC ATB combined with Example 13 @8 μg/ml ([2]; with Example 13 at 8 μg/ml) | MIC ATB combined with Example 1 @8 μg/ml ([8]; with Example 1 at 8 μg/ml)
1 µg/mL: MIC ATB combined with Example 1 @8 μg/ml ([3]; with Example 1 at 8 μg/ml) | MIC ATB combined with Example 13 @8 μg/ml ([3]; with Example 13 at 8 μg/ml)
2 µg/mL: MIC ATB combined with Example 7 @8 μgml ([3]; with Example 7 at 8 μg/ml) | MIC ATB combined with Example 7 @8 μgml ([6]; with Example 7 at 8 μg/ml) | MIC ATB combined with Example 13 @8 μg/ml ([6]; with Example 13 at 8 μg/ml)
